Earlier results as cited in patent publication US20200368163A1, “EN[…]-DISPERSIBLE CANNABINOID NANOPARTICLE COMPOSITIONS, METHODS AND SYSTEMS” (The Trustees of Princeton University, priority 2019, published 2020).

C=C(C)[C@@H]1CCC(C)=C[C@H]1c1c(O)cc(CCCCC)cc1O [CBD, Cannabidiol]
log P: ~6
